We go through 14 compounds from US9914712B2, “Antibacterial thiazolecarboxylic acids” (priority 2013, dated 2018).

Structures are written as SMILES.

Common to all, as to assay type: biochemical
One assay addresses T1, NDM-1 (Klebsiella pneumoniae, UniProt C7C422).
T1 construct: made in house
Kind of assay: In vitro MBL inhibition assay, imipenem hydrolysis (NDM-1). The conditions noted are these: Ki NDM-1, imipenem substrate, Ki from IC50 by Cheng-Prusoff, Km 70 μM. As for the experimental part:
NDM-1 is produced and purified as disclosed in Yong et al, Antimicrobial Agents & Chemotherapy, (2009) 53(12), 5046-54.
(§1) Reaction buffers were prepared in a UV-transparent 96-well microplate, which buffer contains 10 mM HEPES pH 7.5, 50 μM ZnSO4, 20 μg/mL BSA. An amount of 75 ng of protein was added to each well.
(§2) Spectrophometric assays are performed to determine NDM-1/VIM-2/IMP-1 carbapenemase activity using purified proteins (50 ng for NDM-1/VIM-2, 25 ng IMP-1) from NDM-1/VIM-2/IMP-1 expressing bacteria using […] of imipenem as substrate in 10 mM HEPES pH 7.5, 50 μM ZnSO4. MBL hydrolysis is measured at 299 nm for 10 minutes at 30° C. as the absorbance changes due to the opening of beta-lactam ring of the antibiotic.
(§3) The Ki values obtained for selected example compounds are shown in Table 3, where they are compared with the values for pyridine-2-carboxylic acid.

In another assay the target is T2, VIM-2 (Escherichia coli, UniProt Q5U7L7).
T2 construct: made in house
The assay is described as follows: In vitro MBL inhibition assay, imipenem hydrolysis (VIM-2). Particulars: Ki VIM-2, imipenem substrate, Ki from IC50 by Cheng-Prusoff, Km 9 μM. The method, then:
The MBL enzyme VIM-2 is produced and purified as disclosed in Borgianni et al, Antimicrobial Agents & Chemotherapy, (2010), 54(8), 3197-3204.
as §1, §2, §3

In another assay the target is T3, IMP-1 (Serratia marcescens, UniProt P52699).
T3 construct: made in house
T3 sequence (P52699 19-246, species assumed): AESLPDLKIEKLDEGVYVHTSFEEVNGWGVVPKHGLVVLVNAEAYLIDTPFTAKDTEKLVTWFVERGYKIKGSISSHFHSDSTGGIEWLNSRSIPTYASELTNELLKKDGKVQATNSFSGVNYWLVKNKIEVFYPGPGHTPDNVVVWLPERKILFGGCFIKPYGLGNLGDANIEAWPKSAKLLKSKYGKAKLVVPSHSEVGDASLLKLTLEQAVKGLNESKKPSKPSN
The assay is described as follows: In vitro MBL inhibition assay, imipenem hydrolysis (IMP-1). Particulars: Ki IMP-1, imipenem substrate, Ki from IC50 by Cheng-Prusoff, Km 25 μM. As for the experimental part:
The MBL enzyme IMP-1 is produced and purified as disclosed in Laraki et al, Antimicrobial Agents & Chemotherapy, (1999), 43(4), 902-906.
as §1, §2, §3

T1 sequence (C7C422 29-270 limits assumed): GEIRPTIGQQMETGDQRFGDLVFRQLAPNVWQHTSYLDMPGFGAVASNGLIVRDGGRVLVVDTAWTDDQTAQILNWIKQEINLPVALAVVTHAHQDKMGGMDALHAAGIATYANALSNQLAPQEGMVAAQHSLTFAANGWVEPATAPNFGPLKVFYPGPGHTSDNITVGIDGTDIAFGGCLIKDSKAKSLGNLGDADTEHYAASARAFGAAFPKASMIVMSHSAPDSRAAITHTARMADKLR

In the case of `CN(c1ccccc1)S(=O)(=O)Nc1scnc1C(=O)O` [Compound 88, 5-{[methyl(phenyl)sulfamoyl]amino}-1,3-thiazole-4-carboxylic acid], the Ki at NDM-1 is 1000 nM; on VIM-2 it was 160 nM; on IMP-1, 580 nM.

Turning to `O=C(O)c1nc(-c2ccccc2)sc1NS(=O)(=O)c1ccccc1` [Compound 58, 5-benzenesulfonamido-2-phenyl-1,3-thiazole-4-carboxylic acid], the figures for the Ki on NDM-1, at VIM-2 and on IMP-1 were 2300 nM, 800 nM and 70 nM, respectively.

As to `O=C(O)c1ncsc1NS(=O)(=O)CCN1C(=O)c2ccccc2C1=O` [Compound 63, 5-{[2-(1,3-dioxo-2,3-dihydro-1H-isoindol-2-yl)ethyl]sulfonamido}-1,3-thiazole-4-carboxylic acid], the values for the Ki at NDM-1, at VIM-2 and at IMP-1 were 600 nM, 130 nM and 1700 nM, respectively.

For `Cc1nc(C(=O)O)c(NS(=O)(=O)Cc2ccccc2)s1` [Compound 50, 5-benzylsulfonamido-2-methyl-1,3-thiazole-4-carboxylic acid], the results for the inhibition constant Ki on NDM-1, at VIM-2 and on IMP-1 were 1700 nM, 260 nM and 60 nM, respectively.

`Cc1c(S(=O)(=O)Nc2scnc2C(=O)O)cnn1-c1ccccc1` [Compound 81, 5-[(5-methyl-1-phenyl-1H-pyrazol-4-yl)sulfonamido]-1,3-thiazole-4-carboxylic acid]: the values for the Ki on NDM-1, on VIM-2 and at IMP-1 were 130 nM, 30 nM and 410 nM, respectively.

With `O=C(O)c1nc(C(F)(F)F)sc1NS(=O)(=O)Cc1ccccc1Cl` [Compound 96, 5-{[(2-chlorophenyl)methyl]sulfonamido}-2-(trifluoromethyl)-1,3-thiazole-4-carboxylic acid], the Ki on NDM-1 is 2700 nM; at VIM-2 it was 350 nM; on IMP-1, 1200 nM.

Turning to `O=C(O)c1ccccn1` [Pyridine-2-carboxylic acid, pyridine-2-carboxylic acid, reference compound], the Ki was 3000 nM at NDM-1, 1000 nM at VIM-2 and 300000 nM on IMP-1.

As for `O=C(O)c1ncsc1NS(=O)(=O)CCc1cccnc1` [Compound 151, 5-[2-(pyridin-3-yl)ethylsulfonamido]-1,3-thiazole-4-carboxylic acid], the figures for the Ki on NDM-1, on VIM-2 and at IMP-1 were 3200 nM, 100 nM and 1800 nM, respectively.

Consider `O=C(O)c1ncsc1NS(=O)(=O)N1CCCCC1` [Compound 75, 5-[(piperidine-1-sulfonyl)amino]-1,3-thiazole-4-carboxylic acid], for which the Ki is 2100 nM on NDM-1, 340 nM at VIM-2 and 940 nM on IMP-1.

On to `O=C(O)c1ncsc1NS(=O)(=O)Cc1ccccc1` [Compound 5, 5-(phenylmethylsulfonamido)thiazole-4-carboxylic acid], for which the Ki turned out to be 2500 nM at NDM-1, 210 nM at VIM-2 and 50 nM on IMP-1.

Regarding `CC(c1ccccc1)S(=O)(=O)Nc1scnc1C(=O)O` (stereo not drawn) [Compound 60, 5-[(1-phenylethyl)sulfonamido]-1,3-thiazole-4-carboxylic acid], the Ki on NDM-1 amounted to 800 nM; on VIM-2, 100 nM; at IMP-1 it was 70 nM.

Consider `CN(Cc1ccccc1)S(=O)(=O)Nc1scnc1C(=O)O` [Compound 77, 5-{[benzyl(methyl)sulfamoyl]amino}-1,3-thiazole-4-carboxylic acid], for which the Ki is 1300 nM at NDM-1, 30 nM on VIM-2 and 120 nM at IMP-1.

As to `O=C(O)c1ncsc1NS(=O)(=O)c1ccc(-c2ccccc2)s1` [Compound 20, 5-(5-phenylthiophene-2-sulfonamido)thiazole-4-carboxylic acid], the Ki on NDM-1 worked out at 940 nM; on VIM-2 it was 480 nM; at IMP-1 it was 100 nM.

As to `CC(=O)Nc1ccc(S(=O)(=O)Nc2scnc2C(=O)O)cc1` [Compound 78, 5-[(4-acetamidophenyl)sulfonamido]-1,3-thiazole-4-carboxylic acid], the inhibitory constant (Ki) is 160 nM on NDM-1, 400 nM on VIM-2 and 50 nM at IMP-1.

As usually defined, the Ki is the equilibrium dissociation constant of an inhibitor or competing ligand from its target.
